Patent US20230149374A1, “METHODS AND COMPOSITIONS FOR TREATING ATHEROSCLEROSIS” (Sanford Burnham Prebys Medical Discovery Institute, priority 2021, published 2023)
“Also recorded” adds a separate entry of the source.

Key:
Assay type in all cases: in vivo, mouse
ApoE-deficient mice [1] = assay: Plaque histology: osteosense staining of calcifications, oil red O staining; conditions: ApoE-deficient mice on HFD, 30 mg/kg/day from 10 to 25 weeks
Description: (§1) Four cohorts of mice were used in these studies (FIGS. 8A and 9A). Cohorts 1 and 2 were devoted to the in vivo and ex vivo characterization of TNAP-associated plaque calcification. 6-week-old ApoE-deficient male mice were received at the animal facility and placed in conventional cages with 5 mice per cage. Mice were maintained on a 12-hrs light-dark cycle (7:00 am-7:00 pm) and were supplied with food and water ad libitum. From 10 weeks of age, they were fed ad libitum with a high fat diet (HFD, D12108C, Research Diets, New Brunswick, USA) containing 40% fat (kcal) and 1.25% cholesterol (weight). In cohort 1, 8 mice were sacrificed every 2 weeks between weeks 17 to 31, for histological and molecular analyses. Total body weight was measured weekly after starting the HFD. The sacrifice was done after anesthesia with isoflurane and intracardiac blood puncture by CO2 inhalation. Tissues were harvested as described below. The abdominal aorta was used for quantitative polymerase chain reaction (PCR) analyses. Mice from cohort 2 were used to analyze aorta calcification with ^18F—NaF μPET and μCT and to compare the in vivo data with the ex vivo results obtained in cohort 1. Animals were transferred from the animal facility to the Cermep imaging platform. Cohorts 3 and 4 were used to determine in vivo and ex vivo the impact of TNAP inhibition on the vasculature, liver, bones, and kidneys. According to the results obtained in cohorts 1 and 2, TNAP inhibitor SBI-425 (30 mg/kg/day, formulated as a food admixture in the HFD) was administered in a preventive manner from 10 weeks of age. Treatment was stopped at 25 weeks or 31 weeks of age. Plaque calcification was analyzed at 25 weeks, and possible side effects of TNAP inhibition were explored in mice aged 31 weeks. Mice in cohort 3 (2 groups of 13 mice) were used for ex vivo analysis, and mice in cohort 4 (2 groups of 12 mice) for in vivo imaging and ex vivo analyses.
After euthanasia, the heart and vasculature were perfused with sterile NaCl 0.9%. The aortic root and the aortic arch, with the major arteries that stem from them (brachiocephalic, left common carotid and left subclavian), were dissected and frozen in optimal cutting temperature medium (OCT, Thermo Scientific) and stored at −80° C. before serial cryo-sectioning. The aortic root, aortic arch and carotid were dissected under a microscope, frozen in optimal cutting medium (OCT, Thermo Scientific) and stored at −80° C. before serial cryo-sectioning. […] Calcification was imaged by near infrared fluorescence (NIRF) with the calcium tracer osteosense (OS) (PerkinElmer, ex/em 650/680 nm). […] Quantification was performed by computer image analysis using Image J software (NIH, Bethesda, Md.) by averaging of measurements from 2 sections of 15 μm apart using ImageJ software. […]

ApoE-deficient mice [2] = assay: Bone architecture by micro-CT of the femur; conditions: 30 mg/kg/day, treatment up to 21 weeks (31 weeks of age)
Description: as §1, with “Cohorts 3 and 4 were used to determine in vivo and ex vivo the impact of TNAP inhibition on the vasculature, liver, bones, and kidneys. According to the results obtained in cohorts 1 and 2, TNAP inhibitor SBI-425 (30 mg/kg/day, formulated as a food admixture in the HFD) was administered in a preventive manner from 10 weeks of age. Treatment was stopped at 25 weeks or 31 weeks of age.” left out, “Mice in cohort 3 (2 groups of 13 mice) were used for ex vivo analysis, and mice in cohort 4 (2 groups of 12 mice) for in vivo imaging and ex vivo analyses.” left out

ApoE-deficient mice [3] = assay: NMR metabolomics of liver and kidney extracts; conditions: 30 mg/kg/day, vs control
Description: as §1, with “According to the results obtained in cohorts 1 and 2, TNAP inhibitor SBI-425 (30 mg/kg/day, formulated as a food admixture in the HFD) was administered in a preventive manner from 10 weeks of age. Treatment was stopped at 25 weeks or 31 weeks of age.” left out, “Mice in cohort 3 (2 groups of 13 mice) were used for ex vivo analysis, and mice in cohort 4 (2 groups of 12 mice) for in vivo imaging and ex vivo analyses.” left out
Liver and kidney extraction and NMR measurement: The frozen tissues were weighed and then extracted using the methanol-chloroform-water system [2:2:1.425 (v/v/v)]. […] Deuterated phosphate buffer at pH=7.4 (200 mM) was added to the dried aqueous extract with sodium 2,2,3,3-tetradeutero-3-trimethylsilylpropionate (TSP) (Sigma-Aldrich) as internal chemical shift and quantification reference. ^1H NMR spectra were recorded at 298 K on a Bruker Avance spectrometer 500 equipped with a 5-mm TCI cryoprobe. […]

In the case of COc1ccc(Cl)cc1S(=O)(=O)Nc1cncc(C(N)=O)c1 [SBI-425], the “mice that formed calcifications, by histology” value (ApoE-deficient mice [1]; OS staining, control 13 out of 13) was 9 out of 13, the “number of calcifications per mice” value (ApoE-deficient mice [1]; OS staining, vs control) was “lower” and the “plaque lipids (lipid surface)” value (ApoE-deficient mice [1]; oil red O, vs control) was “less lipids”. The “plaque size (plaque surface)” value (ApoE-deficient mice [1]; oil red O, vs control, 30 mg/kg/day) was “smaller; also recorded: reduced”, the bone architecture (ApoE-deficient mice [2]) was “no effect; also recorded: did not significantly change” and the kidney phosphocholine levels (ApoE-deficient mice [3]; 25 weeks) was “increased”. The liver phosphocholine levels (ApoE-deficient mice [3]; 25 weeks) was “decreased; also recorded: variations close to significance” and the “liver or kidney metabolism (metabolomics, PLS-DA)” value (ApoE-deficient mice [3]) was “did not evidence a significant impact; also recorded: did not significantly change”.
